Legend:
Type in all cases: in vivo, human
red blood cells = assay: Phase 1 open-label study in subjects with sickle cell disease: hemolysis and anemia markers (RDW, reticulocytes, total hemoglobin); settings: SCD Cohort 1, 6 mg once daily
Excerpt: (§1) This is a Phase 1 multicenter, open-label study evaluating the safety, tolerability, pharmacokinetics (PK), fetal hemoglobin (HbF) induction and biological activity of Compound 1 in subjects 18-65 years of age with sickle cell disease (SCD). This study comprises 2 parts and is being conducted in subjects 18-65 years of age with sickle cell disease (SCD) either taking hydroxyurea (HU) at a stable dose for at least the preceding 3 months, or not taking hydroxyurea (HU).
(§2) The study consists of two phases. In Part A, Cohort 1 received 6 mg of Compound 1 by mouth once daily for 4 weeks, Cohort 2 received 2 mg of Compound 1 by mouth once daily for 4 weeks, and Cohort 3 received 12 mg of Compound 1 by mouth once daily for 4 weeks. An additional cohort may receive up to and including 20 mg of Compound 1 by mouth once daily for 4 weeks depending on the Data Monitoring Committee [DMC] review. Additional cohorts (up to five total cohorts) may be added based on the safety and pharmacokinetic data observed in subjects from the prior and ongoing cohorts. Up to 10 subjects have been or will be enrolled in each treatment arm.
(§3) The primary endpoints of the study are to evaluate the safety and tolerability of Compound 1 as measured by the frequency of adverse events and to evaluate single and multiple-dose pharmacokinetics of Compound 1 in subjects with sickle cell disease. […]

[1] = Phase 1 open-label multiple-dose study in subjects with sickle cell disease: safety and tolerability; settings: oral once daily
Excerpt: as §1, §2
Part B is the extension study. […]
as §3

[2] = system: H3K27me3/Total Histone H3 ratio; assay: Phase 1 SAD/MAD study: target engagement (change from baseline in H3K27me3/Total Histone H3 ratio); settings: healthy volunteers; across the entire dose range
Description: (§4) Healthy volunteers received oral placebo vs. single oral doses of Compound 1 in the SAD cohorts, or oral placebo vs. single oral doses of Compound 1 once daily (QD) for 14 consecutive days in the MAD cohorts. Safety assessments included AEs, vital signs, ECGs, and laboratory parameters. PK/PD blood sampling was performed pre-dose and Days 1 and 2 in the SAD cohorts, and Days 1, 2, 7, 8 and 12-15 in the MAD cohorts. Target engagement was assessed as change from baseline in H3K27me3/Total Histone H3 ratio. PD assessments included changes in F reticulocytes and HBG mRNA.

F-reticulocytes = assay: Phase 1 MAD study: F-reticulocytes; settings: safety follow-up (SFU) visits 7-10 days post 14-day treatment; dosed at ≥6 mg
Description: as §4
Increases in F-cells and HbF protein are projected with longer treatment duration.
(§5) Data in FIG. 1 and FIG. 2 are presented as geometric LS mean ratios (to placebo) with a 95% confidence interval. Mixed-effects model for repeated measures (MMRM) analysis was performed for Day 7 and Day 14 measurements. An analysis of covariance (ANCOVA) was utilized for SFU data. In FIG. 1 and FIG. 2, “PBO” is placebo.

fetal hemoglobin (HbF) = assay: Phase 1 open-label multiple-dose study in subjects with sickle cell disease: HbF induction by HPLC
Excerpt: as §1, §2
Part B is the extension study. Eligible subjects who consent to continue in the extension study continue on treatment at the same dose level selected in Part A for an additional 8 weeks. Subjects who decline to participate in the extension study are followed for an additional 2-3 weeks.
The primary endpoints of the study are to evaluate the safety and tolerability of Compound 1 as measured by the frequency of adverse events and to evaluate single and multiple-dose pharmacokinetics of Compound 1 in subjects with sickle cell disease. Secondary endpoints include evaluating the effect of Compound 1 on fetal hemoglobin induction in peripheral blood, as well as changes from baseline in reticulocytes, in subjects with sickle cell disease. Exploratory endpoints include biomarkers of hemolysis, target engagement, incidence of vaso-occlusive crises (VOCs), and quality of life (QOL) measurements.

[3] = Phase 1 SAD/MAD clinical study in healthy volunteers: safety and tolerability
Excerpt: (§6) This is a study of the safety, tolerability, pharmacokinetics (PK) and pharmacodynamics (PD) of Compound 1 from a Phase 1, single ascending dose (SAD) and multiple ascending dose (MAD) clinical study.
as §4
(§7) Compound 1 was evaluated in […] healthy volunteer (HV) SAD cohorts (2 to 60 mg), […] HV MAD cohorts (2 to 30 mg QD, 14-day dosing). SAD dose cohorts include 2 mg, 4 mg, 6 mg, 10 mg, 20 mg, 30 mg, 40 mg, and 60 mg Compound 1. MAD dose cohorts include 2 mg, 4 mg, 6 mg, 10 mg, 20 mg, and 30 mg Compound 1.

[4] = Phase 1 SAD/MAD clinical study in healthy volunteers: pharmacokinetics; settings: oral, across all doses
Excerpt: as §6, §4, §7

HBG mRNA = assay: Phase 1 MAD study: HBG mRNA induction
Description: as §4
Safety Follow-up (SFU) samples were collected 7-10 days post 14-day treatment period.
as §5

[5] = SAD 2 to 60 mg, MAD 2 to 30 mg QD 14-day oral dosing

PK profiles [4]: dose proportionality across all doses
Compound: Cc1ncccc1-c1cc2c(n3cnnc13)NCc1c(F)ccc3c1[C@H](CO3)CO2 [Compound 1]
absolute reticulocyte count and total hemoglobin (red blood cells): reductions in reticulocytes and increases in total hemoglobin
red cell distribution width (RDW) (red blood cells; Subjects 7 and 8): reductions in RDW
Tolerability [1]: generally well tolerated
Target engagement [2]: Robust target engagement
mean fold increase in F-reticulocytes (F-reticulocytes): 1.7-3.9 fold
response differences in HU versus non-HU treated subjects (fetal hemoglobin (HbF); SCD Cohort 1, 6 mg once daily, Subjects 7 and 8): no apparent response differences
HbF increase (fetal hemoglobin (HbF); SCD Cohort 1, 6 mg orally once daily, Subjects 7 and 8 (with and without HU), day 84): 6.8%-9.5%
HbF response across doses (fetal hemoglobin (HbF); SCD Cohorts 1 and 2 (6 mg and 2 mg orally once daily)): dose-dependent, clinically relevant and consistent increase in HbF
absolute HbF increases from baseline (fetal hemoglobin (HbF); SCD, a subject in the 12 mg dose cohort (Cohort 3), after 42 days of treatment): up to 10.0%
SAEs or discontinuations [3, 5]: no SAEs or discontinuations
Treatment-related adverse events [3, 5]: mild (Grade 1 or 2)
Tolerability / safety signals ([3]; SAD and MAD cohorts): generally well tolerated and no unexpected safety signals were detected
HBG mRNA induction dependence (HBG mRNA; MAD cohorts, FIG. 1): both time- and dose-dependent
placebo-adjusted increases from baseline in HBG mRNA (HBG mRNA; healthy volunteers, 6-30 mg MAD cohorts, QD 14 days oral): 2.4-6.2 fold

From US20250213543A1, “AN EMBRYONIC ECTODERM DEVELOPMENT INHIBITOR FOR THE TREATMENT OF SICKLE CELL DISEASE” (Fulcrum Therapeutics, Inc., priority 2022, published 2025)
